Test results taken from article PMC6155811, “Effect of Phenolic Compounds from Elderflowers on Glucose- and Fatty Acid Uptake in Human Myotubes and HepG2-Cells” (Molecules : A Journal of Synthetic Chemistry and Natural …, 2017).

Key:
[1] = biological target: T1, Porcine pancreatic α-amylase (Sus scrofa, UniProt P00690); assay: α-Amylase inhibitory activity; format: biochemical; conditions: phenolic compounds and metabolites; IC50 ± SD
T1 construct: purchased Sigma-Aldrich Chemie GmbH
T1 sequence (P00690 16-511): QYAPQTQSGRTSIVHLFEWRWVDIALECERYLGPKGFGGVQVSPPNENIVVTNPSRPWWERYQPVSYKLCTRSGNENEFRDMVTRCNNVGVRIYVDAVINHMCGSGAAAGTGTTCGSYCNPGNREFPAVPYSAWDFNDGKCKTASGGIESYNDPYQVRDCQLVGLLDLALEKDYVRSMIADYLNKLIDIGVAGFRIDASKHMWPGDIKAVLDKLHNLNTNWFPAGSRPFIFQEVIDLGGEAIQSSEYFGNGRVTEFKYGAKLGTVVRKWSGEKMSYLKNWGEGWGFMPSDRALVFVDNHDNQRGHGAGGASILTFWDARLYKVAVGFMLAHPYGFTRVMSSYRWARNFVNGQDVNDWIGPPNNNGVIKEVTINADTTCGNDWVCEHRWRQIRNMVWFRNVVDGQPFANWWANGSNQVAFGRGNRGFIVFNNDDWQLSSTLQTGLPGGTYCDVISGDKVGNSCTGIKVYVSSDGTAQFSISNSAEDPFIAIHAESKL
Experimental: The α-amylase assay was performed as described by Gella, et al.. Porcine pancreatic α-amylase (EC 3.2.1.1) was purchased from Sigma-Aldrich Chemie GmbH.

[2] = biological target: T2, xanthine oxidase from bovine milk (Bos taurus, UniProt P80457); assay: Inhibition of xanthine oxidase; format: biochemical; conditions: phenolic compounds and metabolites; IC50 ± SD; read-out: XO IC50
T2 construct: xanthine oxidase from bovine milk; purchased Sigma-Aldrich (St. Louis, MO, USA); host or cells: bovine milk
T2 sequence (P80457 whole entry): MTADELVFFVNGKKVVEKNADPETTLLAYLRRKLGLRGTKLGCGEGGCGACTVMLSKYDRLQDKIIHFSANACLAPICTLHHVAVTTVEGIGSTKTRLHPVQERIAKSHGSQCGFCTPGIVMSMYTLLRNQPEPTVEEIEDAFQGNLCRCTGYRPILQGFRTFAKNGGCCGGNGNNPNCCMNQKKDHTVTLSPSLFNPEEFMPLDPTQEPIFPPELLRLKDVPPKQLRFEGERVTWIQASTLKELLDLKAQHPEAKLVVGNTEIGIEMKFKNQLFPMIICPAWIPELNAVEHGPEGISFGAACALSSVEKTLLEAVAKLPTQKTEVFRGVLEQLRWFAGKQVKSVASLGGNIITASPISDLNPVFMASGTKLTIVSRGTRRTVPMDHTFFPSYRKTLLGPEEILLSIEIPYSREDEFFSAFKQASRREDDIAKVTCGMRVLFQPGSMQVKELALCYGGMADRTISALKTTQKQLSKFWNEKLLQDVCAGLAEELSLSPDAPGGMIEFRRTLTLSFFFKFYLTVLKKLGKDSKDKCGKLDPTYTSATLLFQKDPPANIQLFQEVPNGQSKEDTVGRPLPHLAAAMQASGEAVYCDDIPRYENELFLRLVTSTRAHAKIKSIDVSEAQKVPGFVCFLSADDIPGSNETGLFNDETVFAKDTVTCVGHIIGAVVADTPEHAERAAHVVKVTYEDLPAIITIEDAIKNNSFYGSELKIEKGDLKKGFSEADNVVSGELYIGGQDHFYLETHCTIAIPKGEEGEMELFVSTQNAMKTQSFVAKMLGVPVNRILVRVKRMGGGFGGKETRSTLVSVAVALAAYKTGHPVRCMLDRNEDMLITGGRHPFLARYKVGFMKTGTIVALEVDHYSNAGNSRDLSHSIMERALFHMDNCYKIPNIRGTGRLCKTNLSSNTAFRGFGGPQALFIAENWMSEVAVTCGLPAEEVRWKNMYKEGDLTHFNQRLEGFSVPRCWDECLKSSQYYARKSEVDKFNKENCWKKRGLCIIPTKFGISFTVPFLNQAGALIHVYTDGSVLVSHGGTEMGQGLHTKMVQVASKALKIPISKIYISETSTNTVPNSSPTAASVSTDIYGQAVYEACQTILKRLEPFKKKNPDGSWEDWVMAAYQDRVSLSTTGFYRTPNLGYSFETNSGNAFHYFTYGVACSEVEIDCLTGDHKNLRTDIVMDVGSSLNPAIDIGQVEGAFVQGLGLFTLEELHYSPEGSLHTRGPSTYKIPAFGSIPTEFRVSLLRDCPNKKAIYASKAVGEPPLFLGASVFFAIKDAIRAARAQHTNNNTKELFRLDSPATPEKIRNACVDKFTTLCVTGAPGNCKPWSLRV
Experimental: The XO inhibitory activity with hypoxanthine as the substrate was carried out previously described. Test substances were dissolved in DMSO or water.

[3] = tested on: HepG2-cells; assay: Oleic acid uptake in HepG2-cells ([14C]-oleic acid); format: cell-based, human; conditions: highest concentration tested
Experimental: Cells were exposed to test samples solved in 0.1% DMSO that were added directly to the medium for 2 days for myotubes and 24 h for HepG2 cells. […] A 96-well UniFilter-96 GF7B microplate (Perkin Elmer, Waltham, MA, USA) was mounted on top of the CellBIND plate (Corning Life-Sciences (Schiphol-Rijk, The Netherlands) and CO2 production was measured. After incubation the cells were washed twice with ice-cold phosphate buffered saline (PBS), lysed in 0.1 M NaOH, and radioactivity measured by liquid scintillation counting. […]

[4] = tested on: human skeletal muscle cells; assay: Oleic acid uptake in human myotubes ([14C]-oleic acid); format: cell-based; conditions: 10 µM (highest concentration tested), 2 days, vs 0.1% DMSO control
Experimental: Figure 3 Effects of elderflower extracts, constituents and metabolites on oleic acid uptake in human myotubes. Myotubes were treated with (A) 12.5, 25 and 50 µg/mL of different crude extracts; (B,C) 0.1, 1 and 10 µM of elderflower phenolic compounds and metabolites for 2 days. Thereafter, the cells were exposed to [^14C]-oleic acid (37 kBq, 100 µM) for 4 h as described in Materials and Methods. A synthetic liver X receptor (LXR) agonist T0901317 (10 μM) was used as positive control. The figures show [^14C]-oleic acid uptake given as means ± SEM (n = 3) from separate experiments. * p < 0.05 vs. control (0.1% DMSO).
(§1) Satellite cells were isolated from the Musculus obliquus internus abdominis of four healthy donors, age 34.8 (±19) years, body mass index 22.9 (±2.7) kg/m^2, fasting glucose 4.9 (±0.6) mM, insulin, plasma lipids and blood pressure within normal range and no family history of diabetes. The muscle biopsies were obtained with informed consent and approval by the National Committee for Research Ethics (Oslo, Norway). The cells were cultured on 96-well CellBIND microplates DMEM-Glutamax (5.5 mM glucose), 2% fetal bovine serum, 2% Ultroser G, penicillin (100 units/mL), streptomycin (100 μg/mL) and amphotericin B (1.25 μg/mL) for proliferation. At 70%–80% confluence, the growth medium was replaced by DMEM-Glutamax (5.5 mM glucose) supplemented with 2% fetal bovine serum, penicillin (100 units/mL), streptomycin (100 μg/mL), amphotericin B (1.25 μg/mL) and insulin (25 pM), to induce differentiation. The cells were cultured in humidified 5% CO2 atmosphere at 37 °C, and the medium was changed every 2–3 days. Experiments were performed after 7 days of differentiation. 22-S-hydroxycholesterol (22-SHC) (10 µM) was used as positive control in the glucose uptake assay. The positive control used in the oleic acid assay is the synthetic liver X receptor (LXR) agonist T0901317 (10 µm).
(§2) Cells were exposed to test samples solved in 0.1% DMSO that were added directly to the medium for 2 days for myotubes and 24 h for HepG2 cells. Thereafter, cells were exposed to [^14C(U)]-glucose (1 μCi/mL, 100 μM) or [^14C]-oleic acid (37 kBq, 100 µM) for 4 h. A 96-well UniFilter-96 GF7B microplate (Perkin Elmer, Waltham, MA, USA) was mounted on top of the CellBIND plate (Corning Life-Sciences (Schiphol-Rijk, The Netherlands) and CO2 production was measured. After incubation the cells were washed twice with ice-cold phosphate buffered saline (PBS), lysed in 0.1 M NaOH, and radioactivity measured by liquid scintillation counting. The protein content of each sample was determined and glucose uptake was calculated using protein levels for standardization.

[5] = biological target: T3, 15-lipoxygenase (15-LO) from soybeans (Glycine max, UniProt P08170); assay: Inhibition of 15-lipoxygenase; format: biochemical, soybean; conditions: phenolic compounds and metabolites; IC50 ± SD; read-out: 15-LO IC50
T3 construct: 15-lipoxygenase (15-LO) from soybeans; purchased Sigma-Aldrich (St. Louis, MO, USA); host or cells: soybeans
T3 sequence (P08170 1-839): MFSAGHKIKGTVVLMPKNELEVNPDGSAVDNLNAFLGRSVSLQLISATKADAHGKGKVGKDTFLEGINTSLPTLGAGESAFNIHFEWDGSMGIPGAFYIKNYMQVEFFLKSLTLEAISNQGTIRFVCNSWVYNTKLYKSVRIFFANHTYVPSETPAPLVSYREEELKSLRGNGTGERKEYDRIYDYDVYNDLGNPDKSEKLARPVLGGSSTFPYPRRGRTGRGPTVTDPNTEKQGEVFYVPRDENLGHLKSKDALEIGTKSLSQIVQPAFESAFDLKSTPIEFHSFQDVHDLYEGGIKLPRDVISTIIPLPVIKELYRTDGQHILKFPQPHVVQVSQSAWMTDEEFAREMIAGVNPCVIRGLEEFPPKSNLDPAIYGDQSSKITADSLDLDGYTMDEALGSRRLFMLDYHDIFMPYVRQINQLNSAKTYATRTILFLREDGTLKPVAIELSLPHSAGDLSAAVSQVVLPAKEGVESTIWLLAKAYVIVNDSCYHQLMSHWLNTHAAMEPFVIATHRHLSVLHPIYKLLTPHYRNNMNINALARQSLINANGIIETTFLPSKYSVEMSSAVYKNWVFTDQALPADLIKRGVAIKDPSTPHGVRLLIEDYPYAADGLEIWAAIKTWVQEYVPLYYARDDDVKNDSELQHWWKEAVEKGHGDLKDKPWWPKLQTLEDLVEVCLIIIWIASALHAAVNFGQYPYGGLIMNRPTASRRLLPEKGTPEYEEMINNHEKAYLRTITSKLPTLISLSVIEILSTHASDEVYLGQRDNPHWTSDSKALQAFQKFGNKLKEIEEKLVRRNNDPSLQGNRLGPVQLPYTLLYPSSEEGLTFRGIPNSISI
Experimental: Test substances were dissolved in DMSO or water, and the assay was carried out as previously described.

[6] = tested on: HepG2-cells; assay: Glucose uptake in HepG2-cells ([14C(U)]-glucose); format: cell-based, human; conditions: 24 h, vs 0.1% DMSO control
Experimental: The human hepatoblastoma cell line HepG2 (HB-8065, ATCC, Manassas, VA, USA) was cultured in DMEM-Glutamax (5.5 mM glucose) supplemented with 10% fetal bovine serum, streptomycin (100 μg/mL) and penicillin (100 units/mL) at 37 °C in 5% CO2.
as §2

[7] = DPPH radical scavenging; conditions: IC50 ± SD; for IC50: phenolic compounds and metabolites
Experimental: Scavenging activity towards the DPPH radical was carried out as previously described. Test substances were dissolved in DMSO or water. Values were corrected for absorbance of the test substances.

[8] = tested on: human skeletal muscle cells; assay: Glucose uptake in human myotubes ([14C(U)]-glucose); format: cell-based; conditions: 10 µM, 2 days, vs 0.1% DMSO control; mean ± SEM
Experimental: Figure 2 Effects of elderflower extracts, constituents and metabolites on glucose uptake in human myotubes. Myotubes were treated with (A) 12.5, 25 and 50 µg/mL of different crude extracts; (B,C) 0.1, 1 and 10 µM of elderflower phenolic compounds and metabolites for 2 days. Thereafter, the cells were exposed to [^14C(U)]-glucose (1 μCi/mL, 100 μM) for 4 h as described in the Materials and Methods section. 22-S-hydroxycholesterol (22-SHC) (10 μM) was used as positive control. The figures show [^14C(U)]-glucose uptake given as means ± standard error of the mean (SEM) (n = 3) from separate experiments. * p < 0.05 vs. control (0.1% dimethyl sulfoxide (DMSO)).
as §1, §2

IC50 [1]	IC50 [2]	IC50 [5]	IC50 [7]	DPPH IC50 ([7]; crude extracts)	Compound	enhancement of oleic acid uptake [3]	increase in oleic acid uptake [4]	maximal increase in glucose uptake [6]	increase in glucose uptake [8]
9.1 ± 1.1 µM	24.2 ± 5.3 µM	106 ± 2.3 µM	–	–	O=C(/C=C/c1ccc(O)c(O)c1)O[C@@H]1C[C@](O)(C(=O)O)C[C@@H](O)[C@H]1O [Chlorogenic acid]	25.6% ± 4.6%	17.3% ± 2.5%	–	–
3.6 ± 1.1 µM	–	93.7 ± 3.7 µM	10.6 ± 3.9 µM	–	O=c1c(O)c(-c2ccc(O)cc2)oc2cc(O)cc(O)c12 [Kaempferol]	–	25.0% ± 3.0%	45.2% ± 2.6%	39.1% ± 5.8%
–	–	–	9.3 ± 1.5 µM	2.8 ± 0.3 µg/mL	O=c1c(O)c(-c2ccc(O)c(O)c2)oc2cc(O)cc(O)c12 [Quercetin]	–	–	41.1% ± 3.2%	37.1% ± 4.6%
